{
  "source": "ChEMBL document CHEMBL4265946",
  "about": "“Activity of oxygen-versus sulfur-containing analogs of the Flex-Het anticancer agent SHetA2” (Eur J Med Chem, 2018)",
  "key": {"A2780 [1]": {"test_system": "A2780", "assay": "Growth inhibition of human A2780 cells at 10 uM after 72 hrs by CellTiter-96 assay relative to control", "type": "functional", "settings": "A2780, 72 h, read-out: GI"}, "A2780 [2]": {"test_system": "A2780", "assay": "Growth inhibition of human A2780 cells after 72 hrs by CellTiter-96 assay", "type": "functional, cell-based", "settings": "A2780, 72 h"}, "[3]": {"assay": "Toxicity in rat", "type": "organism-based", "settings": "in vivo"}, "[4]": {"assay": "Toxicity in dog", "type": "organism-based, Canis lupus familiaris", "settings": "in vivo"}},
  "data": [
    {"smiles": "CC1(C)CC(C)(C)c2cc(N/C(S)=N/c3ccc([N+](=O)[O-])cc3)ccc2O1", "values": [
      {"measurement": "inhibition of growth at 10 µM", "setting": "A2780 [1]", "value": 87, "unit": "%"},
      {"measurement": "IC50", "setting": "A2780 [2]", "value": 6.96, "unit": "µM"}
    ]},
    {"smiles": "CC1(C)CCOc2ccc(NC(=S)Nc3ccc([N+](=O)[O-])cc3)cc21", "values": [
      {"measurement": "inhibition of growth at 10 µM", "setting": "A2780 [1]", "value": 19, "unit": "%"},
      {"measurement": "IC50", "setting": "A2780 [2]", "value": 6.4, "unit": "µM"}
    ]},
    {"smiles": "CCC1(CC)CC(CC)(CC)c2cc(NC(=O)Nc3ccc(C(F)(F)F)cc3)ccc2O1", "values": [
      {"measurement": "inhibition of growth at 10 µM", "setting": "A2780 [1]", "value": 86.2, "unit": "%"},
      {"measurement": "IC50", "setting": "A2780 [2]", "value": 2, "unit": "µM"}
    ]},
    {"smiles": "CC1(C)CCOc2ccc(NC(=O)Nc3ccc([N+](=O)[O-])cc3)cc21", "values": [
      {"measurement": "inhibition of growth at 10 µM", "setting": "A2780 [1]", "value": 74, "unit": "%"},
      {"measurement": "IC50", "setting": "A2780 [2]", "value": 6.7, "unit": "µM"}
    ]},
    {"smiles": "CC1(C)CC(C)(C)c2cc(NC(=S)Nc3ccc(S(N)(=O)=O)cc3)ccc2O1", "values": [
      {"measurement": "inhibition of growth at 10 µM", "setting": "A2780 [1]", "value": 32, "unit": "%"},
      {"measurement": "IC50", "setting": "A2780 [2]", "value": 6.9, "unit": "µM"}
    ]},
    {"smiles": "CCC1(CC)CC(CC)(CC)c2cc(NC(=S)Nc3ccc([N+](=O)[O-])cc3)ccc2O1", "values": [
      {"measurement": "inhibition of growth at 10 µM", "setting": "A2780 [1]", "value": 94, "unit": "%"},
      {"measurement": "IC50", "setting": "A2780 [2]", "value": 4.6, "unit": "µM"}
    ]},
    {"smiles": "CC1(C)CCOc2ccc(NC(=S)Nc3ccc(C(F)(F)F)cc3)cc21", "values": [
      {"measurement": "inhibition of growth at 10 µM", "setting": "A2780 [1]", "value": 28, "unit": "%"},
      {"measurement": "IC50", "setting": "A2780 [2]", "value": 5.5, "unit": "µM"}
    ]},
    {"smiles": "CC1(C)CCOc2ccc(NC(=O)Nc3ccc(OC(F)(F)F)cc3)cc21", "values": [
      {"measurement": "inhibition of growth at 10 µM", "setting": "A2780 [1]", "value": 36, "unit": "%"},
      {"measurement": "IC50", "setting": "A2780 [2]", "value": 3.5, "unit": "µM"}
    ]},
    {"smiles": "CCC1(CC)CC(C)(C)c2cc(NC(=O)Nc3ccc(C(F)(F)F)cc3)ccc2O1", "values": [
      {"measurement": "inhibition of growth at 10 µM", "setting": "A2780 [1]", "value": 92.4, "unit": "%"},
      {"measurement": "IC50", "setting": "A2780 [2]", "value": 2.45, "unit": "µM"}
    ]},
    {"smiles": "CCC1(CC)CC(C)(C)Oc2ccc(NC(=O)Nc3ccc([N+](=O)[O-])cc3)cc21", "values": [
      {"measurement": "inhibition of growth at 10 µM", "setting": "A2780 [1]", "value": 93.7, "unit": "%"},
      {"measurement": "IC50", "setting": "A2780 [2]", "value": 2.05, "unit": "µM"}
    ]},
    {"smiles": "CC1(C)CC(C)(C)c2cc(NC(=O)Nc3ccc(C(F)(F)F)cc3)ccc2O1", "values": [
      {"measurement": "inhibition of growth at 10 µM", "setting": "A2780 [1]", "value": 88.4, "unit": "%"},
      {"measurement": "IC50", "setting": "A2780 [2]", "value": 3.6, "unit": "µM"}
    ]},
    {"smiles": "CC1(C)CC(C)(C)c2cc(NC(=S)Nc3ccc(C(F)(F)F)cc3)ccc2O1", "values": [
      {"measurement": "inhibition of growth at 10 µM", "setting": "A2780 [1]", "value": 2, "unit": "%"},
      {"measurement": "IC50", "setting": "A2780 [2]", "value": 43.7, "unit": "µM"}
    ]},
    {"smiles": "CCC1(CC)CC(CC)(CC)c2cc(NC(=O)Nc3ccc(OC(F)(F)F)cc3)ccc2O1", "values": [
      {"measurement": "inhibition of growth at 10 µM", "setting": "A2780 [1]", "value": 67, "unit": "%"},
      {"measurement": "IC50", "setting": "A2780 [2]", "value": 3, "unit": "µM"}
    ]},
    {"smiles": "CCC1(CC)CC(C)(C)Oc2ccc(NC(=S)Nc3ccc(C(F)(F)F)cc3)cc21", "values": [
      {"measurement": "inhibition of growth at 10 µM", "setting": "A2780 [1]", "value": 11.8, "unit": "%"},
      {"measurement": "IC50", "setting": "A2780 [2]", "value": 4.7, "unit": "µM"}
    ]},
    {"smiles": "CC1(C)CC(C)(C)c2cc(NC(=O)Nc3ccc(OC(F)(F)F)cc3)ccc2O1", "values": [
      {"measurement": "inhibition of growth at 10 µM", "setting": "A2780 [1]", "value": 91.5, "unit": "%"},
      {"measurement": "IC50", "setting": "A2780 [2]", "value": 4.56, "unit": "µM"}
    ]},
    {"smiles": "CC1(C)CC(C)(C)c2cc(NC(=O)Nc3ccc([N+](=O)[O-])cc3)ccc2O1", "values": [
      {"measurement": "inhibition of growth at 10 µM", "setting": "A2780 [1]", "value": 79, "unit": "%"},
      {"measurement": "IC50", "setting": "A2780 [2]", "value": 4.1, "unit": "µM"}
    ]},
    {"smiles": "CCC1(CC)CC(CC)(CC)c2cc(NC(=O)Nc3ccc([N+](=O)[O-])cc3)ccc2O1", "values": [
      {"measurement": "inhibition of growth at 10 µM", "setting": "A2780 [1]", "value": 91.4, "unit": "%"},
      {"measurement": "IC50", "setting": "A2780 [2]", "value": 2.09, "unit": "µM"}
    ]},
    {"smiles": "CC1(C)CCOc2ccc(NC(=O)Nc3ccc(C(F)(F)F)cc3)cc21", "values": [
      {"measurement": "inhibition of growth at 10 µM", "setting": "A2780 [1]", "value": 47, "unit": "%"},
      {"measurement": "IC50", "setting": "A2780 [2]", "value": 5, "unit": "µM"}
    ]},
    {"smiles": "CC1(C)CCOc2ccc(NC(=S)Nc3ccc(OC(F)(F)F)cc3)cc21", "values": [
      {"measurement": "inhibition of growth at 10 µM", "setting": "A2780 [1]", "value": 16, "unit": "%"},
      {"measurement": "IC50", "setting": "A2780 [2]", "value": 4.3, "unit": "µM"}
    ]},
    {"smiles": "CCC1(CC)CC(C)(C)c2cc(NC(=O)Nc3ccc([N+](=O)[O-])cc3)ccc2O1", "values": [
      {"measurement": "inhibition of growth at 10 µM", "setting": "A2780 [1]", "value": 93.2, "unit": "%"},
      {"measurement": "IC50", "setting": "A2780 [2]", "value": 2.17, "unit": "µM"}
    ]},
    {"smiles": "CC1(C)CC(C)(C)c2cc(NC(=O)Nc3ccc(C#N)cc3)ccc2O1", "values": [
      {"measurement": "inhibition of growth at 10 µM", "setting": "A2780 [1]", "value": 93, "unit": "%"},
      {"measurement": "IC50", "setting": "A2780 [2]", "value": 4.7, "unit": "µM"}
    ]},
    {"smiles": "CCC1(CC)CC(C)(C)c2cc(NC(=S)Nc3ccc([N+](=O)[O-])cc3)ccc2O1", "values": [
      {"measurement": "inhibition of growth at 10 µM", "setting": "A2780 [1]", "value": 93.9, "unit": "%"},
      {"measurement": "IC50", "setting": "A2780 [2]", "value": 2.9, "unit": "µM"}
    ]},
    {"smiles": "CCC1(CC)CC(C)(C)Oc2ccc(NC(=S)Nc3ccc([N+](=O)[O-])cc3)cc21", "values": [
      {"measurement": "inhibition of growth at 10 µM", "setting": "A2780 [1]", "value": 95.7, "unit": "%"},
      {"measurement": "IC50", "setting": "A2780 [2]", "value": 3.69, "unit": "µM"}
    ]},
    {"smiles": "CCC1(CC)CC(C)(C)Oc2ccc(NC(=O)Nc3ccc(C(F)(F)F)cc3)cc21", "values": [
      {"measurement": "inhibition of growth at 10 µM", "setting": "A2780 [1]", "value": 93.3, "unit": "%"},
      {"measurement": "IC50", "setting": "A2780 [2]", "value": 2.43, "unit": "µM"}
    ]},
    {"smiles": "CCOC(=O)c1ccc(N/C(S)=N/c2ccc3c(c2)C(C)(C)CC(C)(C)O3)cc1", "values": [
      {"measurement": "inhibition of growth at 10 µM", "setting": "A2780 [1]", "value": 26, "unit": "%"},
      {"measurement": "IC50", "setting": "A2780 [2]", "value": 4.3, "unit": "µM"}
    ]},
    {"smiles": "CC1(C)CC(C)(C)c2cc(NC(=S)Nc3ccc([N+](=O)[O-])cc3)ccc2S1", "note": "[SHETA-2]", "values": [
      {"measurement": "NOAEL", "setting": "[3]", "value": 500, "unit": "mg/kg/day"},
      {"measurement": "inhibition of growth at 10 µM", "setting": "A2780 [1]", "value": 84.3, "unit": "%"},
      {"measurement": "IC50", "setting": "A2780 [2]", "value": 3.17, "unit": "µM"},
      {"measurement": "NOAEL", "setting": "[4]", "value": "> 1500", "unit": "mg/kg/day"}
    ]}
  ]
}
